We go through 56 compounds from ChEMBL document CHEMBL4020847, “Discovery of an Orally Bioavailable Inhibitor of Defective in Cullin Neddylation 1 (DCN1)-Mediated Cullin Neddylation” (J Med Chem, 2018).

Structures are written as SMILES.

Data set [1] is described as follows: Half life in mouse liver microsomes at 0.8 uM by LC-MS/MS analysis. The class given is ADME, microsome.
For a further data set, the target named is DCN1-like protein 1 (Homo sapiens, UniProt Q96GG9).
Data set [2] in a line: Intrinsic clearance in mouse liver microsomes at 0.8 uM by LC-MS/MS analysis. The class given is ADME, microsome. Particulars: read-out: CLH.
The test system of data set [3] is Liver. In words: Drug metabolism in mouse liver microsomes assessed as 1-benzyl-1-(piperidin-4-yl)-3-(3-(trifluoromethyl)phenyl)urea formation at 0.8 uM by LC-MS/MS analysis. The class given is ADME, microsome.
In data set [4] the test system is Liver. Briefly: Drug metabolism in mouse liver microsomes assessed as aromatic ring oxidation at 0.8 uM by LC-MS/MS analysis. The class given is ADME, microsome.
Data set [5] deals with Liver. Briefly: Drug level in mouse liver microsomes treated with 1-benzyl-1-(1-(cyclopropylmethyl)piperidin-4-yl)-3-(3-(trifluoromethyl)phenyl)urea at 0.8 uM by LC-MS/MS analysis. The class given is ADME, microsome.
Data set [6] relates to Mus musculus. In words: Volume of distribution in mouse at 0.5 to 1.5 mg/kg, iv administered as single dose. The class given is ADME, organism-based. The conditions noted are these: in vivo.
In the next data set the test system is Plasma. In words: Plasma concentration in mouse at 0.5 to 1.5 mg/kg, iv administered as single dose after 2 hrs. The conditions noted are these: in vivo, BLD = below limit of detection. The class given is ADME, organism-based.
In data set [7] the test system is Mus musculus. Briefly: Clearance in mouse at 0.5 to 1.5 mg/kg, iv administered as single dose. Particulars: in vivo. The class given is ADME, organism-based.
The test system of data set [8] is Mus musculus. Briefly: Toxicity in mouse at 0.5 to 1.5 mg/kg, iv administered as single dose up to 48 hrs. The class given is organism-based. The conditions noted are these: in vivo.
Data set [9] has as its system Mus musculus. Briefly: Half life in mouse at 0.5 to 1.5 mg/kg, iv administered as single dose. The class given is ADME, organism-based. The conditions noted are these: in vivo.

Chain of DCN1-like protein 1 (Q96GG9 whole entry): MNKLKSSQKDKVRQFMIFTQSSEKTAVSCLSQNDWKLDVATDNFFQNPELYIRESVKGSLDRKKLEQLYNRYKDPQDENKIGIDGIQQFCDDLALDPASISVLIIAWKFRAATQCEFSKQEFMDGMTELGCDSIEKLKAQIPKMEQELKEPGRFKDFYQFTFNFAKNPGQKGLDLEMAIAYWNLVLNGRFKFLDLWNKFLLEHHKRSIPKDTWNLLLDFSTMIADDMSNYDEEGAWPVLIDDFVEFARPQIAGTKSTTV
Description for DCN1-like protein 1: Inhibition of biotin-labeled DCN1 (unknown origin) assessed as reduction in protein interaction with Ac-UBE2M12-AlexaFluor488 after 1 hr by TR-FRET assay

In [1], `CCCCN1CCC(N(Cc2ccccc2)C(=O)Nc2ccc(C)c(Cl)c2)CC1` showed a half-life at 0.8 µM of 17.2 min. In addition, on DCN1-like protein 1, the 50% inhibitory concentration (IC50) came to 325 nM. For `CCCC(C)N1CCC(N(Cc2ccccc2)C(=O)Nc2cccc(Cl)c2)CC1` (stereo unspecified) the same measures were at most 6 min and 304 nM. For the compound `CCCN1CCC(N(Cc2ccc3c(c2)OCO3)C(=O)Nc2cccc(C(F)(F)F)c2)CC1`, the half-life at 0.8 µM in data set [1] is below 6 min. The compound `CCCC(C)N1CCC(N(Cc2ccccc2)C(=O)Nc2ccc(C)c(F)c2)CC1` (stereo unspecified) had a half-life at 0.8 µM in data set [1] of 9 min.

On to `CCCC(C)N1CCC(N(Cc2ccccc2)C(=O)Nc2ccc3c(c2)OCO3)CC1` (stereo unspecified), for which the half-life at 0.8 µM in [1] was at most 6 min. Further, the CLint scaled at 0.8 µM in data set [2] was at least 500 mL/min/kg.

In turn, `CCCC(C)N1CCC(N(Cc2ccccc2)C(=O)Nc2ccc(C(F)(F)F)cc2)CC1` (stereo unspecified) had a half-life at 0.8 µM in data set [1] of 27.3 min. Further, the midpoint of inhibition against DCN1-like protein 1, the IC50, lay at 314 nM. `CCCC(C)N1CCC(N(Cc2ccccc2)C(=O)Nc2ccc3ncccc3c2)CC1` (stereo unspecified) displayed a half-maximal inhibitory concentration (IC50) on DCN1-like protein 1 above 20000 nM. In turn, `CCCC(C)N1CCC(N(Cc2ccccc2)C(=O)Nc2cccc(C(C)C)c2)CC1` (stereo unspecified) showed a half-life at 0.8 µM in data set [1] of 13.4 min. In addition, the IC50 against DCN1-like protein 1 was found to be 353 nM.

As to `CCCC(C)N1CCC(N(Cc2ccccc2)C(=O)Nc2cc(Cl)ccc2F)CC1` (stereo unspecified), the half-life at 0.8 µM in data set [1] is 14.9 min. Moreover, the 50% inhibitory concentration (IC50) against DCN1-like protein 1 was above 34000 nM. For `CCCC(C)N1CCC(N(Cc2ccccc2)C(=O)Nc2ccc(C(F)(F)F)nc2C)CC1` (stereo unspecified) the same measures were above 240 min and 13300 nM.

In turn, `CCCN1CCC(N(Cc2ccco2)C(=O)Nc2cccc(C(F)(F)F)c2)CC1` had a half-life at 0.8 µM in data set [1] of 8.22 min. The same measure, in the same setting: with `CCCCN1CCC(N(Cc2ccccc2)C(=O)Nc2ccc(F)c(Cl)c2)CC1` the figure was 84 min. Turning to `COc1cccc(CN2CCC(N(Cc3ccccc3)C(=O)Nc3cc(F)cc(C(F)(F)F)c3)CC2)c1`, the IC50 on DCN1-like protein 1 is above 28000 nM. On the same count and under the same terms, to `O=C(Nc1cc(F)cc(C(F)(F)F)c1)N(Cc1ccccc1)C1CCN(Cc2nc3ccccc3s2)CC1` belongs above 25000 nM. `CCCCN1CCC(N(Cc2ccc3c(c2)OCO3)C(=O)Nc2cccc(C(F)(F)F)c2)CC1`: the half-life at 0.8 µM in data set [1] was 14.7 min. For `CCCC(C)N1CCC(N(Cc2ccccc2)C(=O)Nc2ccc(C(C)(C)C)cc2)CC1` (stereo unspecified), on DCN1-like protein 1, the IC50 was determined as 1720 nM. Turning to `CCCC(C)N1CCC(N(Cc2ccccc2)C(=O)Nc2ccc(C(C)C)cc2)CC1` (stereo unspecified), the half-life at 0.8 µM in [1] is 10.6 min.

Regarding `COc1ccccc1CN1CCC(N(Cc2ccccc2)C(=O)Nc2cc(F)cc(C(F)(F)F)c2)CC1`, on DCN1-like protein 1, the IC50 is above 25000 nM. `O=C(Nc1cccc(C(F)(F)F)c1)N(Cc1ccccc1)C1CCN(CC2CC2)CC1` had a half-life at 0.8 µM in data set [1] below 6 min. For the same compound, the Drug metabolism entry in the data set on Liver [3] and in the data set on Liver [4] was “Metabolite_Detected” throughout. `CC(C)(C)N1CCC(N(Cc2ccc3c(c2)OCO3)C(=O)Nc2cccc(C(F)(F)F)c2)CC1` had a half-life at 0.8 µM in data set [1] of 7.44 min.

On to `CCCCN1CCC(N(Cc2ccccc2)C(=O)Nc2cc(F)cc(F)c2)CC1`, for which the half-life at 0.8 µM in [1] is at most 6 min. In [2], the CLint scaled at 0.8 µM is at least 500 mL/min/kg. Regarding `CCCC(C)N1CCC(N(Cc2ccccc2)C(=O)Nc2ccc(Cl)c([N+](=O)[O-])c2)CC1` (stereo unspecified), the half-life at 0.8 µM in data set [1] is 22.7 min. Still for that read-out and setting: to `CCCC(C)N1CCC(N(Cc2ccccc2)C(=O)Nc2ccc(C#N)c(C(F)(F)F)c2)CC1` (stereo unspecified) belongs 55.9 min. Turning to `O=C(Nc1cc(F)cc(C(F)(F)F)c1)N(Cc1ccccc1)C1CCN(Cc2cccc(Oc3ccccc3)c2)CC1`, the IC50 at DCN1-like protein 1 was above 24000 nM. For `O=C(Nc1cccc(C(F)(F)F)c1)N(Cc1ccccc1)C1CCNCC1`, in the data set on Liver [5], the Drug metabolism result is listed as “Metabolite_Detected”. As to `CCCC(C)N1CCC(N(Cc2ccccc2)C(=O)Nc2cccc(F)c2)CC1` (stereo unspecified), in data set [1], the half-life at 0.8 µM is at most 6 min. This compound also displayed an IC50 on DCN1-like protein 1 of 1690 nM.

As to `CCCC(C)N1CCC(N(Cc2ccccc2)C(=O)Nc2cc(F)cc(Cl)c2)CC1` (stereo unspecified), the half-life at 0.8 µM in data set [1] was at most 6 min. Besides, the CLint scaled at 0.8 µM in [2] was at least 500 mL/min/kg. As to `CCCC(C)N1CCC(N(Cc2ccccc2)C(=O)Nc2ccc(I)cc2)CC1` (stereo unspecified), the half-life at 0.8 µM in data set [1] was 29.9 min. The same compound gave an IC50 against DCN1-like protein 1 of 54 nM. For `CCCC(C)N1CCC(N(Cc2ccccc2)C(=O)Nc2ccc(Br)cc2)CC1` (stereo unspecified) the same measures were 23.2 min and 68 nM. In data set [1], `CCCC(C)N1CCC(N(Cc2ccccc2)C(=O)Nc2ccc3c(c2)CCC3)CC1` (stereo unspecified) displayed a half-life at 0.8 µM of at most 6 min. `Cn1cncc1CN1CCC(N(Cc2ccccc2)C(=O)Nc2cc(F)cc(C(F)(F)F)c2)CC1` registered an IC50 against DCN1-like protein 1 above 24000 nM.

`CCCC(C)N1CCC(N(Cc2ccccc2)C(=O)Nc2cc(C(F)(F)F)ccc2F)CC1` (stereo unspecified) had a half-life at 0.8 µM in [1] of 48.5 min. Half-maximal inhibition against DCN1-like protein 1 (IC50) required 7440 nM. In turn, `Cn1ccc2cc(CN3CCC(N(Cc4ccccc4)C(=O)Nc4cc(F)cc(C(F)(F)F)c4)CC3)ccc21` returned an IC50 against DCN1-like protein 1 above 21000 nM. For the compound `CCCC(C)N1CCC(N(Cc2ccccc2)C(=O)Nc2ccc3ccccc3c2)CC1` (stereo unspecified), in data set [1], the half-life at 0.8 µM is at most 6 min. For the same compound, in data set [2], the CLint scaled at 0.8 µM is at least 500 mL/min/kg. Further, the IC50 against DCN1-like protein 1 turned out to be 18 nM. `CCCC(C)N1CCC(N(Cc2ccccc2)C(=O)Nc2cc(F)cc(C(F)(F)F)c2)CC1` (stereo unspecified) gave a half-life at 0.8 µM in data set [1] of 11.8 min. Same read-out and setting: to `CCCN1CCC(N(Cc2ccccc2)C(=O)Nc2cccc(C(F)(F)F)c2)CC1` belongs 10.2 min. For the compound `CCCCN1CCC(N(Cc2ccccc2)C(=O)Nc2cccc(C)c2)CC1`, the half-life at 0.8 µM in data set [1] was 10.7 min. This compound gave an IC50 against DCN1-like protein 1 of 1300 nM.

In turn, `CCCC(C)N1CCC(N(Cc2ccccc2)C(=O)Nc2cccc(C(F)(F)F)c2)CC1` (stereo unspecified) gave a Vd with Mus musculus [6] of 87.3 to 176 L/kg. Besides, in the data set with Plasma, the Cp result is given as “Bld”. In the data set on Mus musculus [7], the CL was 700 mL/min/kg. The compound further registered a half-life at 0.8 µM in data set [1] of 19.6 to 19.8 min. Also, in [2], the CLint scaled at 0.8 µM fell in the range of 165 to 170 mL/min/kg. Moreover, in the data set with Mus musculus [8], the Activity entry is given as “Non-Toxic”. Also, the t1/2 in the data set with Mus musculus [9] is 8.4 min.

With `CCCN1CCC(N(Cc2cc(F)cc(C(F)(F)F)c2)C(=O)Nc2cccc(C(F)(F)F)c2)CC1`, the half-life at 0.8 µM in [1] is 16.3 min. Consider `CCCC(C)N1CCC(N(Cc2ccccc2)C(=O)Nc2ccc(F)c(C(F)(F)F)c2)CC1` (stereo unspecified), for which, in [1], the half-life at 0.8 µM is 23.6 min. Besides, the half-maximal inhibitory concentration (IC50) on DCN1-like protein 1 came out at 290 nM.

In turn, `Cc1ccc(CN2CCC(N(Cc3ccccc3)C(=O)Nc3cc(F)cc(C(F)(F)F)c3)CC2)o1` displayed an IC50 against DCN1-like protein 1 above 24000 nM.

As for `CCCCN1CCC(N(Cc2ccccc2)C(=O)Nc2cccc(Cl)c2)CC1`, the half-life at 0.8 µM in data set [1] is at most 6 min. In data set [1], `CCCCN1CCC(N(Cc2ccccc2)C(=O)Nc2ccc(F)c(C(F)(F)F)c2)CC1` had a half-life at 0.8 µM of 116 min. The IC50 at DCN1-like protein 1 was found to be 612 nM. On to `Cn1ccnc1CN1CCC(N(Cc2ccccc2)C(=O)Nc2cc(F)cc(C(F)(F)F)c2)CC1`, for which the IC50 against DCN1-like protein 1 was above 28000 nM. Compound `CCCCN1CCC(N(Cc2ccccc2)C(=O)Nc2cccc(C(F)(F)F)c2F)CC1` had a half-life at 0.8 µM in data set [1] of at most 6 min. The same measure, in the same setting: to `CCCC(C)N1CCC(N(Cc2ccccc2)C(=O)Nc2ccc3ncsc3c2)CC1` (stereo unspecified) belongs 14.3 min. In data set [1], `CCCCN1CCC(N(Cc2ccccc2)C(=O)Nc2cccc(C#N)c2)CC1` showed a half-life at 0.8 µM of 9.3 min. This compound also returned an IC50 on DCN1-like protein 1 of 4250 nM. The compound `O=C(Nc1cc(F)cc(C(F)(F)F)c1)N(Cc1ccccc1)C1CCN(Cc2ccncc2)CC1` came in with an IC50 on DCN1-like protein 1 above 28000 nM. `CCCCN1CCC(N(Cc2ccccc2)C(=O)Nc2cccc(C(F)(F)F)c2)CC1` showed a half-life at 0.8 µM in data set [1] of 9 min.

For the compound `CCCC(C)N1CCC(N(Cc2ccccc2)C(=O)Nc2ccc(Cl)cc2)CC1` (stereo unspecified), in data set [1], the half-life at 0.8 µM is 22.1 min. The IC50 on DCN1-like protein 1 stood at 112 nM. Take `O=C(Nc1cccc(C(F)(F)F)c1)NC1CCN(Cc2ccccc2)CC1`: the half-life at 0.8 µM in data set [1] was 35.5 min. The same measure, in the same setting: with `CCCCN1CCC(N(Cc2ccccc2)C(=O)Nc2cc(F)cc(C(F)(F)F)c2)CC1` the figure was 146 min. On to `O=C(Nc1cc(F)cc(C(F)(F)F)c1)N(Cc1ccccc1)C1CCN(Cc2ccc(Cc3ccccc3)cc2)CC1`, for which, at DCN1-like protein 1, the IC50 is above 22000 nM. In turn, `CCCC(C)N1CCC(N(Cc2ccccc2)C(=O)Nc2ccc(C)cc2)CC1` (stereo unspecified) showed a half-life at 0.8 µM in data set [1] of 9.6 min. In addition, the midpoint of inhibition against DCN1-like protein 1, the IC50, lay at 356 nM. For the compound `CCCC(C)N1CCC(N(Cc2ccccc2)C(=O)Nc2ccc(F)c(F)c2)CC1` (stereo unspecified), the half-life at 0.8 µM in [1] was 11.3 min. As to `CCCCN1CCC(N(Cc2ccccc2)C(=O)Nc2cccc(F)c2)CC1`, the half-life at 0.8 µM in data set [1] is at most 6 min. The CLint scaled at 0.8 µM in [2] was at least 500 mL/min/kg.
